Measurements taken from patent US20250186436A1 (4E Therapeutics, Inc., priority 2021, published 2025).
Read-outs that look alike come from different tables or passages of the source.

Columns and labels:
Wistar rats = test: Intravenous self-administration with oxycodone and saline regimen; type: in vivo; conditions: Wistar rats; for Mean Difference, Šídák's multiple comparisons test: numbers of infusions
Method: Ten male and eleven female Wistar rats (Charles River, Hollister, CA) were used in this study. Rats were housed in groups of 2-3 per cage prior to surgery, and then individually housed to protect their catheters, in a temperature-controlled (22° C.) vivarium on a 12/12h light/dark cycle (lights off at 8:00 AM) with ad libitum access to food and water. The rats acclimated to the animal facility for at least 7 days before surgery. All procedures adhered to the National Institutes of Health Guide for the Care and Use of Laboratory Animals and were approved by the Institutional Animal Care and Use Committee of The Scripps Research Institute.
For surgery, rats were anesthetized with 2 to 3% isoflurane. They were implanted with a silastic catheter (0.3 mm i.d.×0.64 mm o.d.; Dow Corning Co. Midland, MI) into the right external jugular vein under aseptic conditions. The distal end of the catheter was subcutaneously threaded to the back of the rat where it exited via a metal guide cannula (22G; Plastics One Inc., Roanoke, VA) that was anchored at the back of the rat and closed with a small plastic cap and metal cover cap to keep the inside part of the catheter clean and protected (Caine S B, et al. “Effects of dopamine D-1 and D-2 antagonists on cocaine self-administration under different schedules of reinforcement in the rat” J Pharmacol Exp Ther. 270(1):209-18 (1994); Wee S, et al. “Effects of dose and session duration on cocaine self-administration in rats” J Pharmacol Exp Ther. 320(3):1134-43 (2007); Zorrilla E P, et al. “Extended access cocaine self-administration differentially activates dorsal raphe and amygdala corticotropin-releasing factor systems in rats” Addict Biol. 17(2):300-8 (2012); Valtcheva M V, et al. “Surgical extraction of human dorsal root ganglia from organ donors and preparation of primary sensory neuron cultures” Nat Protoc. 11:1877-1888 (2016)). All incisions were closed using veterinary tissue adhesive. After surgery, rats were given analgesic (Flunixin, 2.5 mg/kg s.c.).
Rats were allowed 5-7 days for recovery prior to self-administration.
The patency of catheters in the rats was tested using an ultra-short-acting barbiturate methohexital sodium (Brevital, Eli Lilly, Indianapolis, 1N, 10 mg/mL, 2 mg/rat) every 10-12 days during the study. Generally, a total loss of muscle tone within 3 s after a methohexital sodium injection indicates the patency of a catheter. Any animal that failed the test was excluded from the study.
During experimental sessions, each rat was placed in a standard operant chamber, which was placed in a light- and sound-attenuating cubicle (28×26×20 cm; Med Associates Inc., St. Albans, VT). The front door and the back wall of the chamber were made of transparent plastic, and the other walls were opaque metal. The chamber had two retractable response levers mounted on one side of the opaque walls. A stimulus light was mounted above each lever. A drug injection was delivered by a syringe pump (Razel Scientific Instruments, Georgia, VT) located on top of the cubicle. Experimental sessions were controlled and recorded by a PC computer with custom interface and software in the experimental room.
Experimental sessions were conducted once a day, 5-7 days a week during the dark (active) cycle. After being flushed with 0.9% saline, a rat's indwelling catheter was connected to a tube that exited the chamber through a metal spring and a swivel and was connected to a syringe pump. After the drug delivery system was connected to the rat, the chamber was closed, and the 2 hr session was started immediately. The start of a session was signaled by the presentation of two response levers into the chamber. […] During an injection, stimulus lights above both levers were illuminated and lasted throughout a time-out period (20 s) that followed each injection. Pressing the left lever was counted but had no other programmed consequences. […]

[1] = target: T1, recombinant full-length human kinase MNK1 (Homo sapiens, UniProt Q9BUB5); test: MNK1 radiometric kinase activity assay; type: biochemical
T1 construct: the recombinant full-length human kinase MNK1; made in house; host or cells: insect cells

[2] = target: T2, recombinant full length human kinase MNK2 (Homo sapiens, UniProt Q9HBH9); test: MNK2 radiometric kinase activity assay; type: biochemical
T2 construct: the recombinant full length human kinase MNK2; made in house; host or cells: insect cells

[3] = test system: eIF4E phosphorylation at Serine 209 in HEK 293 cells; test: eIF4E phosphorylation in HEK 293 cells (phospho-specific antibody, fluorescent plate reader); type: cell-based; conditions: Homo sapiens, HEK293; eIF4E phosphorylation at Serine 209, 2 hours exposure; read-out: HEK 293 cell;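 further: Well-level p-eIF4E immunofluorescence normalized to DAPI signal, expressed as percent eIF4E phosphorylation, with IC50 derived from concentration-response curves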
P-gp (human MDR1, ABCB1) [4] = test: in vitro; conditions: dog, MDCK-MDR1
in vitro = conditions: mouse, microsomes
P-gp (human MDR1, ABCB1) [5] = test: MDCK-MDR1 permeability (blood-brain barrier permeability); conditions: dog
[6] = Liver microsome stability; conditions: mouse, liver microsomes
[7] = test system: IL-6 evoked grimace in ICR mice; test: IL-6 evoked grimace test; type: in vivo; conditions: PO 1 hr prior to IL-6 (4ET-03-053: 10 mg/kg)
Method: Male and female Institute for Cancer Research (ICR) mice were used in these experiments. Mice were bred in house at University of Texas at Dallas and used at between 12 and 24 weeks of age. Mice were habituated to plexiglass boxes of approximately 4×6 inches in size with openable tops. Habituation took place over 2 days with animals exposed to the boxes for at least 30 min. A blinded observer scored baseline grimacing using the method previously described by Mogil and colleagues (Langford D J, et al. “Coding of facial expressions of pain in the laboratory mouse” Nat Methods 7:447-449 (2010)). On test day, mice were given test compounds 1 hr prior to injection of interleukin 6 (human recombinant IL-6, R&D Systems) which was given at a dose of 0.1 ng in saline via an intraplantar injection as described previously (Moy J K, et al. “The MNK-eIF4E Signaling Axis Contributes to Injury-Induced Nociceptive Plasticity and the Development of Chronic Pain” J Neurosci. 37:7481-7499 (2017)). Test compounds were given orally (PO) via a flexible oral gavage canula built for mice. 4ET-03-053 is efficacious in the IL-6 evoked grimace test in mice (PO; 10 mg/kg).
Effect sizes were calculated per mouse by subtracting the baseline grimace score from the sum of the grimace scores for 1 and 3 hr time points.

[8] = test system: eIF4E phosphorylation in hDRGs; test: p-eIF4E immunofluorescence in cultured human dorsal root ganglion cells (hDRGs); type: cell-based; conditions: OSM 10 and 50 ng/ml, 30 min
Method: For all human DRG experiments, DRGs were recovered from organ donors at the Southwest Transplant Alliance under an IRB approved protocol at University of Texas at Dallas. DRGs were recovered within 3 hrs of cross clamp. DRGs were recovered and taken back to the University of Texas lab where they were cultured using the protocol described previously. Cultures were grown on glass coverslips for microscopy. Coverslips were coated with poly-D-lysine and laminin to improve neuronal adherence to the coverslips. Cultures of human DRG neurons were grown for 4-7 days prior to treatment with OSM. OSM treatment was done in culture media for a period of 30 min. Cells were stained with antibodies using the same protocol as described above for HEK293 cells. Imaging was done on an Olympus FV1200 microscope and image analysis was done with CellSens software. Statistical analysis was done with Graphpad Prism V8.
Human DRG recovery and other experimental protocols were the same as described herein.

[9] = radiometric activity assay, read-out: MNK1
[10] = radiometric activity assay, read-out: MNK2

T1 sequence (Q9BUB5 whole entry): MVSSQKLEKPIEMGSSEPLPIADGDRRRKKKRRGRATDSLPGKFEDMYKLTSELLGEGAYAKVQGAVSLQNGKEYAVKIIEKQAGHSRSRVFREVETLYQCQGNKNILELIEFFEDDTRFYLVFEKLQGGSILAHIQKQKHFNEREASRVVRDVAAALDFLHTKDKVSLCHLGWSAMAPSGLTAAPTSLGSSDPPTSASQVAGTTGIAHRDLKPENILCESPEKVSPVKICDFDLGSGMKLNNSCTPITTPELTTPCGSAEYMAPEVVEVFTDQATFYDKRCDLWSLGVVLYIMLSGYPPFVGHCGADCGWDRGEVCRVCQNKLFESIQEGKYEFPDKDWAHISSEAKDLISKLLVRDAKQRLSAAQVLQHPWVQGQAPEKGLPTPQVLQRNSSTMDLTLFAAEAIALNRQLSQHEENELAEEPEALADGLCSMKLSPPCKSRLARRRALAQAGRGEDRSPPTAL
T2 sequence (Q9HBH9 whole entry): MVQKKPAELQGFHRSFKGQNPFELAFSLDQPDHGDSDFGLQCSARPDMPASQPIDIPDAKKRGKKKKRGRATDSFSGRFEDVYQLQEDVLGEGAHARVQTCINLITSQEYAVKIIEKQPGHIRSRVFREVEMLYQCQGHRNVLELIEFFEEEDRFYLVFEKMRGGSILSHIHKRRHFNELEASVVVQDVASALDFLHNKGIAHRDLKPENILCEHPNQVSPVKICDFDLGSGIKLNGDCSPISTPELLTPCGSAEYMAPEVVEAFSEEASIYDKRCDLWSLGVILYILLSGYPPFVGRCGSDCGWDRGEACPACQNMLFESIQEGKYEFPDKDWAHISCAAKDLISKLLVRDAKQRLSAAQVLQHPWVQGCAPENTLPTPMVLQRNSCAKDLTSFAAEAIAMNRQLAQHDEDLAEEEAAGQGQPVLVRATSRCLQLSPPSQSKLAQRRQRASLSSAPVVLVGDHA

With `COc1ccc2c3c1O[C@H]1C(=O)CC[C@@]4(O)[C@@H](C2)N(C)CC[C@]314` [oxycodone, oxycondone, reference compound] the “numbers of infusions, multiple comparisons test: oxycodone and subsequent saline” value (Wistar rats; 0.15 mg/kg oxycodone, both times this occurred) was “significant differences”, the “Mean Difference, Šídák's multiple comparisons test” value (Wistar rats; 0.15 mg/kg oxycodone vs. saline (3rd comparison, first occurrence)) was 6.547 and the “Mean Difference, Šídák's multiple comparisons test” value (Wistar rats; 0.15 mg/kg oxycodone vs. saline (6th comparison, second occurrence)) was 9.006.

Work on `Cc1cc(Nc2cc(NC(=O)C3CC3)ncn2)c(=O)n2c1C(=O)NC21CCC2(CC1)CN2` (stereo not shown) [4ET-03-040, N-(6-((8″-methyl-1″,5″-dioxo-1″,5″-dihydro-2″H-dispiro[aziridine-2,1′-cyclohexane-4′,3″-imidazo[1,5-a]pyridin]-6″-yl)amino)pyrimidin-4-yl)cyclopropanecarboxamide] yielded an IC50 [1] of 38.6 nM, an IC50 [2] of 2 nM and an IC50 [3] of 27.4 nM. For the same molecule, the Papp A→B at 5 uM (P-gp (human MDR1, ABCB1) [4]) was 0.6 ×10⁻⁶ cm/s, the Papp B→A at 5 uM (P-gp (human MDR1, ABCB1) [4]) was 1.6 ×10⁻⁶ cm/s and the half-life (in vitro) was 1.28 h. For the same molecule, the efflux ratio at 5 uM (P-gp (human MDR1, ABCB1) [5]) was 2.4.

`Cc1cc(Nc2cc(N)ncn2)c(=O)n2c1C(=O)NC21CCCC2(CC2)C1` (stereo not shown) [4ET-01-042, 6″-((6-Aminopyrimidin-4-yl)amino)-8″-methyl-2″H-dispiro[cyclopropane-1,1′-cyclohexane-3′,3″-imidazo[1,5-a]pyridine]-1″,5″-dione] gave an IC50 [1, 9] of 16.5 nM, an IC50 [2, 10] of 2 nM and an IC50 [3] of 0.8 nM. It also gave a half-life [6] of 1.88 h, a Papp A→B at 5 uM (P-gp (human MDR1, ABCB1) [5]) of 50.4 ×10⁻⁶ cm/s and a Papp B→A at 5 uM (P-gp (human MDR1, ABCB1) [5]) of 68.9 ×10⁻⁶ cm/s. It also gave an efflux ratio at 5 uM (P-gp (human MDR1, ABCB1) [5]) of 1.4.

Work on `Cc1cc(Nc2cc(N)ncn2)c(=O)n2c1C(=O)NC21CCCC2(CC2)CC1` (racemic) [rac-4ET-01-027, 6″-((6-Aminopyrimidin-4-yl)amino)-8″-methyl-2″H-dispiro[cyclopropane-1,1′-cycloheptane-4′,3″-imidazo[1,5-a]pyridine]-1″,5″-dione] yielded an IC50 [1, 9] of 35.2 nM, an IC50 [2, 10] of 1.6 nM and an IC50 [3] of 12.6 nM. For the same molecule, the “efficacy in the IL-6 evoked grimace test” value [7] was “efficacious”, the half-life [6] was 1.11 h and the Papp A→B at 5 uM (P-gp (human MDR1, ABCB1) [5]) was 52.9 ×10⁻⁶ cm/s. For the same molecule, the Papp B→A at 5 uM (P-gp (human MDR1, ABCB1) [5]) was 62.1 ×10⁻⁶ cm/s and the efflux ratio at 5 uM (P-gp (human MDR1, ABCB1) [5]) was 1.2.

Molecule `Cc1cc(Nc2cc(N)ncn2)c(=O)n2c1C(=O)NC21C=CC2(CC2)CC1` (stereo not shown) [4ET-01-051, 6″-((6-Aminopyrimidin-4-yl)amino)-8″-methyl-2″H-dispiro[cyclopropane-1,1′-cyclohexane-4′,3″-imidazo[1,5-a]pyridin]-2′-ene-1″,5″-dione] has an IC50 [1, 9] of 58.6 nM, an IC50 [2, 10] of 3.1 nM and an IC50 [3] of 7.3 nM. The “efficacy in the IL-6 evoked grimace test” value [7] was “efficacious”, the half-life [6] was 13.9 h and the Papp A→B at 5 uM (P-gp (human MDR1, ABCB1) [5]) was 22.7 ×10⁻⁶ cm/s. It also gave a Papp B→A at 5 uM (P-gp (human MDR1, ABCB1) [5]) of 52.4 ×10⁻⁶ cm/s and an efflux ratio at 5 uM (P-gp (human MDR1, ABCB1) [5]) of 2.3.

With `Cc1cc(Nc2cc(NC(=O)C3CC4(CNC4)C3)ncn2)c(=O)n2c1C(=O)NC21CCC2(CC2)CC1` [4ET-03-057, N-(6-((8″-methyl-1″,5″-dioxo-1″,5″-dihydro-2″H-dispiro[cyclopropane-1,1′-cyclohexane-4′,3″-imidazo[1,5-a]pyridin]-638-yl)amino)pyrimidin-4-yl)-2-azaspiro[3.3]heptane-6-carboxamide] the IC50 [1, 9] was 61.6 nM, the IC50 [2, 10] was 3.4 nM and the IC50 [3] was 8.7 nM. For the same molecule, the Papp A→B (P-gp (human MDR1, ABCB1) [4]) was 0.3 ×10⁻⁶ cm/s, the Papp B→A (P-gp (human MDR1, ABCB1) [4]) was 1.1 ×10⁻⁶ cm/s and the half-life [6] was 3.65 h.

B1: oncostatin M (protein, UniProt P13725 26-221, looked up)
Oncostatin-M: AAIGSCSKEYRVLLGQLQKQTDLMQDTSRLLDPYIRIQGLDVPKLREHCRERPGAFPSEETLRGLGRRGFLQTLNATLGCVLHRLADLEQRLPKAQDLERSGLNIEDLEKLQMARPNILGLRNNIYCMAQLLDNSDTAEPTKAGRGASQPPTPTPASDAFQRKLEGCRFLHGYHRFMHSVGRVFSKWGESPNRSRR
For B1, the “phosphorylation of eIF4E in hDRGs (stimulus)” value [8] was “increased phosphorylation of eIF4E”.
